Measurements from US20260199365A1, “BIS-SULFONAMIDE SHIP1 ACTIVATORS” (The Research Foundation for the State University of New York, priority 2022, published 2026).
“Also recorded” adds a separate entry of the source.

Target: T1, recombinant human truncated SHIP1 (tSHIP1) (Homo sapiens, UniProt Q92835)
T1 construct: tSHIP1 (SHIP1, residues 397-864) was amplified from pET24TEV-tSHIP1; His tag; made in house; host or cells: E. coli BL21
T1 sequence (Q92835 397-864): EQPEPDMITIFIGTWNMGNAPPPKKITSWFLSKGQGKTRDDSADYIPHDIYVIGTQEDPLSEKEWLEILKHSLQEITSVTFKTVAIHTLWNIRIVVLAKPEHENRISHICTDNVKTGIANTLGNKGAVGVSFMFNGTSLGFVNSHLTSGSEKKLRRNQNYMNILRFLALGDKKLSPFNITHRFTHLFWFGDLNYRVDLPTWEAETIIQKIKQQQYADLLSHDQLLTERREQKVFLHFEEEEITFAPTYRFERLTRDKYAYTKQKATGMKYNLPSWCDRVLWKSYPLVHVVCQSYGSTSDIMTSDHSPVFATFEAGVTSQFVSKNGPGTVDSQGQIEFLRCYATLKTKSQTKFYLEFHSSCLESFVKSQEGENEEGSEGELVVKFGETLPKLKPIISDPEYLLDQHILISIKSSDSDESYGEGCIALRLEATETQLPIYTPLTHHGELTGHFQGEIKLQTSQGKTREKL
Assay: Malachite Green Phosphatase Release Assay (SHIP1 phosphatase activity)
Assay type: biochemical
Conditions: for Phosphatase activity in the Malachite Green Assay, analog concentration 125 μM: 125 μM analog; for Phosphatase activity in the Malachite Green Assay, analog concentration 125 μM / Phosphatase activity in the Malachite Green Assay, analog concentration 250 μM / Phosphatase activity in the Malachite Green Assay, analog concentration 500 μM: 100 μM PI(3,4,5)P3-diC8 substrate, normalized to vehicle control (DMSO) = 100%; for Phosphatase activity in the Malachite Green Assay, analog concentration 250 μM: 250 μM analog; for Phosphatase activity in the Malachite Green Assay, analog concentration 500 μM: 500 μM analog, >100% activation, <100% inhibition; for SHIP1 activator activity in the malachite green assay: discussion of Table 4 (125-500 μM); for Malachite (SHIP1), 125 μM / Malachite (SHIP1), 250 μM / Malachite (SHIP1), 500 μM: bis-sulfonamide hybrids
Description: ^aPhosphatase activity for SHIP1 and SHIP2 enzyme as determined in the malachite green assay. Results were normalized to the phosphatase activity level from vehicle control (DMSO) used as 100% activity. Values >100% are attributed to activation, while values <100% show inhibition of the enzyme compared to the control. The assay was performed at the indicated concentration of the small molecule with 100 μM PI(3,4,5)P3-diC8 as the substrate. ^bnd=not determined, compound 23 was insoluble.
Cloning and expression of tSHIP1 of truncated human SHIP1 protein (tSHIP1) from human whole blood mRNA have been previously described (see Brooks R, Iyer, S., Akada, H., Neelam, S., Russo, C. M., Chisholm, J. D., and Kerr W. G. Coordinate Expansion of Murine Hematopoietic and Mesenchymal Stem Cell Compartments by SHIPi Stem Cells 2015; 33:848). Briefly, tSHIP1 (SHIP1, residues 397-864) was amplified from pET24TEV-tSHIP1. Plasmids were extracted with Midi Prep (Qiagen) and sequences were verified by sequencing of the entire expression regions. The plasmids were then transformed into E. coli BL21 (New England Biolabs). Fresh colonies were amplified in 1 L LB at 37° C., shaking at 250 rpm until OD600 nm reached 0.6. Protein expression was induced with […] IPTG and incubation was continued at 16° C., shaking at 250 rpm for 16 h. Following centrifugation, bacteria pellets were stored overnight at −20° C. Protein was extracted form bacterial cell pellet using BugBuster HT (Millipore), according to manufacturer's recommendations. The His-tagged protein was purified by FPLC using HisTrapHP 5 ml column (Cytiva Life Sciences) at a 5 ml/min flow rate and 10 mM-1M imidazole gradient in Buffer A (20 mM Tris pH 8.0, 300 mM NaCl, 10 mM imidazole, 5 mM β-mercaptoethanol). Fractions containing active protein by Malachite Green Phosphatase Release Assay (Echelon, see below) were pooled, concentrated and buffer exchanged to reduce imidazole concentration by centrifugation using Pierce Protein Concentrators 30KMWCO PES, (ThermoFisher Scientific). Protein was aliquoted and stored at −80° C. in a mixture of Buffer A (without β-ME) and 50% glycerol.
Malachite Green Phosphatase Release Assays: Malachite Green Phosphatase Release Assays (Echelon Biosciences) were performed with recombinant human truncated SHIP1 (tSHIP1) (Brooks, 2015) and SHIP2 (Echelon Biosciences). Briefly, serial dilutions of the compounds dissolved in DMSO were added to the recombinant enzymes diluted in reaction buffer Rx (50 mM Hepes pH 7.4, 150 mM NaCl, 1 mM MgCl2, 0.25 mM EDTA) in triplicate reactions in 96-well plates. Reactions were incubated for 2 min at room temperature. […] of 1 mM Phosphatidylinositol 3,4,5-trisphosphate diC8 (PI(3,4,5)P3diC8) (Echelon Biosciences) was added to each reaction to a final concentration of 100 μM in a final volume of […]. Following 20 min incubation at 37° C., 100 μL of Malachite Green Solution (Echelon Biosciences) was added to each well and plates were incubated at room temperature in the dark for 15 min. Plates were then read at 620 nm on a plate reader (Synergy 2, BioTek).

Row | Compound | Phosphatase activity in the Malachite Green Assay, analog concentration 125 μM [%] | Phosphatase activity in the Malachite Green Assay, analog concentration 250 μM [%] | Phosphatase activity in the Malachite Green Assay, analog concentration 500 μM [%] | SHIP1 activator activity in the malachite green assay | Malachite (SHIP1), 125 μM [%] | Malachite (SHIP1), 250 μM [%] | Malachite (SHIP1), 500 μM [%] | SHIP1 activator activity in the malachite green assay (listed as 22)
1 | O=C(CNS(=O)(=O)c1ccc(F)cc1)Nc1cc(S(=O)(=O)N2CCSCC2)sc1Cl [Compound K401, N-[2-Chloro-5-(thiomorpholine-4-sulfonyl)thiophen-3-yl]-2-(4-fluorobenzenesulfonamido) acetamide] | 102 | 109 | 125 | nearly equipotent as the parent K306 structure | – | – | – | –
2 | O=C(Nc1ccc(S(=O)(=O)N2CCCCC2)cc1)[C@@H]1CCCN1S(=O)(=O)c1ccc(C(F)(F)F)cc1 (stereo in doubt) [Compound K423] | – | – | – | – | 99 | 109 | 136 | –
3 | Cc1sc(S(=O)(=O)N2CCCC2)cc1NC(=O)CNS(=O)(=O)c1ccc(F)cc1 [Compound K387, 2-(4-Fluorobenzenesulfonamido)-N-[2-methyl-5-(pyrrolidine-1-sulfonyl)thiophen-3-yl]acetamide] | 100 | 97 | 90 | loss of activity | – | – | – | –
4 | Cc1sc(S(=O)(=O)N2CCSCC2)cc1NC(=O)CNS(=O)(=O)c1ccccc1[N+](=O)[O-] [Compound K391, N-[2-Methyl-5-(thiomorpholine-4-sulfonyl)thiophen-3-yl]-2-(2-nitrobenzenesulfonamido) acetamide] | 117 | 133 | 163 | quite active | – | – | – | –
5 | Cc1sc(S(=O)(=O)N2CCSCC2)cc1NC(=O)[C@@H](NS(=O)(=O)c1ccc(F)cc1)c1ccccc1 [Compound K409, (2S)-2-(4-Fluorobenzenesulfonamido)-N-[2-methyl-5-(thiomorpholine-4-sulfonyl)thiophen-3-yl]-2-phenylacetamide] | 94 | 107 | 134 | – | – | – | – | –
6 | O=C(Nc1ccc(S(=O)(=O)N2CCCCC2)cc1)[C@@H]1CCCN1S(=O)(=O)c1ccccc1C(F)(F)F [Compound K420] | – | – | – | – | 99 | 112 | 138 | –
7 | Cc1sc(S(=O)(=O)N2CCSCC2)cc1NC(=O)CNC(=O)c1ccccc1 [Compound K371, N-[2-methyl-5-(thiomorpholine-4-sulfonyl)thiophen-3-yl]-2-(phenylformamido) acetamide] | 97 | 94 | 83 | loss of potency | – | – | – | –
8 | CCCCNS(=O)(=O)c1ccc(NC(=O)[C@@H]2CCCN2S(=O)(=O)c2ccc(C(F)(F)F)cc2)cc1 [Compound K425] | – | – | – | – | 75 | 80 | 81 | –
9 | CCN(CC)S(=O)(=O)c1cc(NC(=O)CNS(=O)(=O)c2ccc(F)cc2)c(C)s1 [Compound K383, N-[5-(Diethylsulfamoyl)-2-methylthiophen-3-yl]-2-(4-fluorobenzenesulfonamido) acetamide] | 101 | 93 | 109 | – | – | – | – | –
10 | O=C(CNS(=O)(=O)c1ccccc1C(F)(F)F)Nc1ccc(S(=O)(=O)N2CCCCC2)cc1 [Compound K427] | – | – | – | – | 80 | 88 | 116 | –
11 | CCCCNS(=O)(=O)c1ccc(NC(=O)[C@@H]2CCCN2S(=O)(=O)c2ccccc2C(F)(F)F)cc1 [Compound K424] | – | – | – | – | 79 | 84 | 91 | –
12 | Cc1sc(S(=O)(=O)N2CC[S+]([O-])CC2)cc1NC(=O)CNS(=O)(=O)c1ccc(F)cc1 [Compound K377] | 98 | 89 | 80 | – | – | – | – | no activity as a SHIP activator; also recorded: some inhibition of SHIP1
13 | Cc1sc(S(=O)(=O)N2CCSCC2)cc1NC(=O)CN [Compound K378, 2-Aminotrifluoroacetate-N-[2-methyl-5-(thiomorpholine-4-sulfonyl)thiophene-3-yl]acetamide] | 103 | 104 | 107 | reduced effect on SHIP activation | – | – | – | –
14 | Cc1sc(S(=O)(=O)N2CCSCC2)cc1NC(=O)[C@H](Cc1ccccc1)NS(=O)(=O)c1ccc(F)cc1 [Compound K396, (2S)-2-(4-Fluorobenzenesulfonamido)-N-[2-methyl-5-(thiomorpholine-4-sulfonyl)thiophen-3-yl]-3-phenylpropanamide] | 71 | 74 | 130 | – | – | – | – | –
15 | O=C(CNS(=O)(=O)c1ccc(C(F)(F)F)cc1)Nc1ccc(S(=O)(=O)N2CCCCC2)cc1 [Compound K426] | – | – | – | – | 75 | 63 | 74 | –
16 | Cc1sc(S(=O)(=O)N2CCCCC2)cc1NC(=O)[C@@H]1CCCN1S(=O)(=O)c1ccccc1C(F)(F)F [Compound K421] | – | – | – | – | 96 | 122 | 158 | –
